This is an account of results in US5202456A, “Compounds for inhibition of protein methylation” (The President and Fellows of Harvard College, priority 1991, dated 1993).

Entries after “also recorded” stand apart in the source; their conditions may differ. Where two headings read alike, the source gives them in different places. * marks the point of attachment. Farnesyl = CC(C)=CCC/C(C)=C/CC/C(C)=C/C*

One test has as its system HL-60 cell extracts. The test is described as follows: Turnover of AFC methyl ester by HL-60 cell extracts. The format is biochemical. The note with it: in words.
In test [1] the test system is demethylase activity in ROS membranes. Put plainly: Methylation exchange/demethylation of AFC methyl ester with ROS membranes. Type of test: biochemical, bovine. As to the method:
(§1) Frozen bovine retinas (Wanda Lawson Co., Lincoln, Nebr.) were used to prepare ROS membranes depleted of peripheral proteins using a modification of the procedure of Wessling-Resnick et al. (J. Biol. Chem. 262:3697, 1987). Briefly, ROS membranes were washed with low ionic strength buffer and 100μM GTP, resuspended in 50 mM Hepes-Na (pH 7.4), 100 mM NaCl, 5 mM MgCl2, 0.1 mM phenylmethylsulfonyl fluoride, 0.1 mM dithiothreitol (buffer A) and stored in small aliquots at -80° C. until used. Transducin was isolated by disrupting ROS membranes by passing the membranes through a narrow needle and washing the disrupted membranes in a series of centrifugation steps as described by Wessling-Resnick et al. (J. Biol. Chem. 262:3697, 1987). Finally transducin was eluted from the membranes with 100μM GTP. The transducin-enriched supernatant was concentrated using Centriprep (Amicon).
(§2) For initial studies, the reaction mixture contained 20 μCi of S-adenosyl-[methyl-^3 H] methionine ([^3 H]SAM) (2.34 μM, Amersham) and an aliquot of ROS (120μg of total protein) or of washed ROS membranes (80μg of total protein) in 100 μl of buffer A. Purified transducin was added to this mixture to a concentration of 5 μM. AFC, N-acetylcysteine, or AFC methylester was added in 2 μl of dimethyl sulfoxide to give a final concentration of 20 μM, and the reaction was carried out at 37° C.
To study the demethylation process directly, AFC[^3 H]methyl ester was incubated with ROS membranes in the presence of methylation inhibitors. […] Under similar conditions, demethylation of Tγ and the putative small G protein (23-29 kDa) was also observed.

The next test concerns cell growth. The note with it: Maltese et al., 1985; cited from earlier work.
The subject of test [2] is cellular synthesis of mevalonic acid. The note with it: in words; cited from earlier work.
The subject of the next test is ras proteins. The note with it: Hancock et al., 1989; cited from earlier work.
For a further test, the system named is HL-60 cells. Put plainly: Inhibition of HL-60 cell proliferation (trypan blue dye exclusion count). Type of test: cell-based. The note with it: FIG. 2; in words. On the procedure: FTA, FTP, AFHC and AFC were tested for their ability to inhibit cell growth as follows.
HL-60 cells (ATCC CCL 240, American Type Culture Collection, Rockville, Md.) which harbor an activated ras gene were grown in RPMI medium (Gibco/BRL, Bethesda, Md.) supplemented with 10-15% fetal calf serum, L-glutamine, penicillin and streptomycin. These cells were treated with various concentrations of FTA, FTP, AFHC, or AFC dissolved in dimethyl sulfoxide (DMSO) or with DMSO only (In all experiments the final DMSO concentration was 1% or less). Treated ans untreated cells were incubated under standard culture conditions for several days. Cells were counted manually at 24 hour intervals using a trypan blue dye exclusion assay which counts only live, intact cells.

The subject of a further test is transducin γ subunit. The test is described as follows: In vitro carboxyl-methylation of transducin γ subunit in ROS. The note with it: 10 μM; [3H]SAM 2.3 μM; densitometry of SDS gels. The format is biochemical, bovine. From the text:
We have identified an S-adenosyl-L-methionine-dependent methyltransferase activity in bovine retinal rod outer segments (ROS) which methylates the free carboxyl group of the farnesylated cysteine of bovine retinal transducin γ subunit. The bovine retinal transducin γ subunit has a carboxyl-terminal --CAAX motif and undergoes a farnesylation reaction similar to that observed on ras (Lai et al., Proc. Natl. Acad. Sci. USA 87:7673, 1990; Fukada et al., Nature 346:658, 1990). Bovine retinal rod outer segment S-adenosyl-L-methionine-dependent methyltransferase (ROS methyltransferase) provides a means by which to identify compounds capable of interfering with the methylation of proteins having a carboxyl-terminal --CAAX motif.
Frozen bovine retinas (Wanda Lawson Co., Lincoln, Nebr.) were used to prepare ROS membranes depleted of peripheral proteins using a modification of the procedure of Wessling-Resnick et al. (J. Biol. Chem. 262:3697, 1987). Briefly, ROS membranes were washed with low ionic strength buffer and 100μM GTP, resuspended in 50 mM Hepes-Na (pH 7.4), 100 mM NaCl, 5 mM MgCl2, 0.1 mM phenylmethylsulfonyl fluoride, 0.1 mM dithiothreitol (buffer A) and stored in small aliquots at -80° C. until used. […]

In the next test the test system is 23 kDa ras protein. Put plainly: [3H]SAM methylation of 23 kDa ras protein in disrupted HL-60 cells. The format is biochemical. The note with it: 50 μM. As to the method:
In an in vitro labelling reaction similar to that described above for ROS membranes, the 23 kDa ras protein was the principle protein methylated by [^3 H]SAM labelling of disrupted HL-60 cells. In this assay 50 μM FTA inhibited methylation of the 23 kDa protein by 61%.

Test [3] deals with methyltransferase activity in HL-60 cells. The test is described as follows: Methylation of AFC by activity present in HL-60 cell membrane. The format is biochemical. The following applies: 10-fold excess of FTA.
The target of test [4] is T1, ROS methyltransferase (bovine retinal rod outer segment S-adenosyl-L-methionine-dependent methyltransferase) (Bos taurus, UniProt A0AAA9SD88).
T1 construct: utilizing ROS membranes as the source of methyltransferase enzyme; tissue Wanda Lawson Co., Lincoln, Nebr; (frozen bovine retinas); host or cells: bovine retinal rod outer segment (ROS) membranes
The test is described as follows: ROS methyltransferase assay: compounds as substrates (Km) or inhibitors (Ki) of AFC methylation. Type of test: biochemical. As to the method:
Standard assays may be used to determine Km for substrates and Ki for inhibitors. […] The values of Ki and Km are calculated from kinetic assays by conventional means (Fersht, Enzyme Structure and Mechanism, W. H. Freeman and Co., New York, 1984). Examples are provided below to illustrate suitable assays, and are not intended to limit the invention.
One suitable assay of methylation functions uses bovine retinal rod outer segment (ROS) methyltransferase and a natural substrate, transducin. […] Another suitable assay uses N-acetyl-S-farnesylcysteine as a substrate for ROS methyltransferase.
The bovine retinal transducin γ subunit has a carboxyl-terminal --CAAX motif and undergoes a farnesylation reaction similar to that observed on ras (Lai et al., Proc. Natl. Acad. Sci. USA 87:7673, 1990; Fukada et al., Nature 346:658, 1990).
as §1, §2
The above-described methyltransferase assay was used to analyze the analogs described above.

Test [5] relates to methyltransferase present in HL-60 cell extracts. The test is described as follows: Methylation of transducin γ subunit by HL-60 cell extract methyltransferase. The format is biochemical. The following applies: in words.
The mark [6] stands for this setting: [3H]SAM and washed ROS membranes.

T1 sequence (A0AAA9SD88 1-284): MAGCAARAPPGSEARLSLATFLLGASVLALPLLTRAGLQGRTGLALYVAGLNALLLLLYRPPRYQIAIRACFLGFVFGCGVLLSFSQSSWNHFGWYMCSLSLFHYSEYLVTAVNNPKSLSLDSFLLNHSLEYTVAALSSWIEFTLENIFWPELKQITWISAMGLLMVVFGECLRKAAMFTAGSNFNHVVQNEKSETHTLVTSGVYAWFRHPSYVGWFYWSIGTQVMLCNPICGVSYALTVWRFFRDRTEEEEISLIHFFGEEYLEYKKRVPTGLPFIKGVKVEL

`COC(=O)[C@H](CSC/C=C(\C)CC/C=C(\C)CCC=C(C)C)NC(C)=O` [AFC methyl ester]: the “turnover by HL-60 cell extracts” value with HL-60 cell extracts is on record as “can be turned over”. In addition, in test [1] (ROS membranes, in presence of methylation inhibitors), the “hydrolysis of methyl ester by demethylase activity” value is “rapidly hydrolyzed”. Besides, in test [1] (setting [6]), the “duration of linear incorporation of radioactivity” value was “at least 2 hr” and the “incorporation of radioactivity into AFC methyl ester” value is reported as “linear, time-dependent incorporation of radioactivity”.

Turning to `CC[C@H](C)C(=O)O[C@H]1C[C@@H](C)C=C2C=C[C@H](C)[C@H](CC[C@@H]3C[C@@H](O)CC(=O)O3)[C@H]21` [Mevinolin], the cell growth block entry with cell growth was “blocked in cell growth in the G1 phase and the G2/M phase”. For the same molecule, the “cellular synthesis of mevalonic acid” value in [2] was “inhibits”. Moreover, in the test with ras proteins, the “post-translational processing of ras proteins” value is reported as “affects” and the ras membrane localization result is recorded as “interferes”.

Consider `CC(C)=CCC/C(C)=C/CC/C(C)=C/CSCC(=O)O` [FTA, 2-farnesylthioacetic acid], for which the “inhibition of proliferation of HL-60 cells” value with HL-60 cells was “can inhibit proliferation”. Besides, the “inhibition of in vitro carboxyl-methylation of transducin γ subunit” value in the test on transducin γ subunit was 70%. Moreover, in the test on 23 kDa ras protein, the “inhibition of methylation of the 23 kDa protein” value came out at 61%. Further, in test [3], the “inhibition of AFC methylation by HL-60 membrane activity” value was found to be 90%. For the same molecule, in test [4] (Table 1, conventional inhibitors, read-out: Ki), the Ki (in general, the equilibrium dissociation constant of an inhibitor or competing ligand from its target) was determined as 4.6 µM. Besides, the Ki in test [4] (calculated, read-out: Ki for inhibition of AFC methylation) was 4.6 µM. In test [4] (in words), the “competitive inhibition of AFC methylation” value was “potent competitive inhibitors” and the “substrate activity for ROS methyltransferase” value is reported as “substrate activity was lost; also recorded: not substrates”.

B1: γ subunit of transducin: γ subunit (Tγ) of retinal transducin, farnesylated at cysteine (protein, UniProt P02698 2-71, looked up)
Guanine nucleotide-binding …: PVINIEDLTEKDKLKMEVDQLKKEVTLERMLVSKCCEEFRDYVEERSGEDPLVKGIPEDKNPFKELKGGC(Farnesyl)
modifications: ends and bridges not checked
notes: γ subunit (Tγ) of retinal transducin, farnesylated at cysteine
B1: the “methylation by methyltransferase in HL-60 cell extracts” value in [5] was “can be methylated”.
